In ChEMBL document CHEMBL1122751, “Structure-activity relationships of phenytoin-like anticonvulsant drugs” (1984):

The molecules below were run on Mus musculus (assay: Antiepileptic potency in the maximal electroshock seizure test. Compound was administered orally to male NMRI mice). Conditions: po.
Assay type: functional

| SMILES | ED50 |
| --- | --- |
| O=C1NCNC1(c1ccccc1)c1ccccc1 [DOXENITOIN] | 129 µmol/kg |
| CC1CC(c2ccccc2)(c2ccccc2)C(=O)N1C (stereo unspecified) | 3830 µmol/kg |
| O=C1NC(=O)C(c2ccccc2)(c2ccccc2)N1 [PHENYTOIN] | 28 µmol/kg |
| O=C1CC(c2ccccc2)(c2ccccc2)C(=O)N1 | 107 µmol/kg |
| CN1C(=O)CC(c2ccccc2)(c2ccccc2)C1=O | 357 µmol/kg |
| CN1C(=O)NC(c2ccccc2)(c2ccccc2)C1=O | 149 µmol/kg |
